# Source: publication PMC10780413, “Flavonoid Metabolites in Serum and Urine after the Ingestion of Selected Tropical Fruits” (Nutrients, 2024)
# Like-named read-outs stand apart in the source and are kept apart here.
# Legend:
# xanthine oxidase = system: xanthine oxidase; parameters: method as in PMID 11118813; details: cited from earlier work
# [1] = assay type: in vivo, human; details: after guava, pineapple, pomelo
# Method: Participants maintained a low-flavonoid diet (e.g., diet without vegetables, fruits, or chocolate) for two days and fasted for 8 h before the study to avoid any contribution from other foods containing flavonoids. Servings of fresh fruits of 200 g were given to the participants followed by 200 mL water. Beverages containing alcohol and caffeine were prohibited during the test period. Venous blood samples were collected before and 2, 4, 6, and 8 h after fruit ingestion. Serum was immediately prepared using centrifugation 233× g at 4 °C for 15 min, 200 mM ascorbic acid was added, and the samples were then stored at −20 °C until the analysis (within two weeks). Urine samples were collected at intervals of 0–4, 4–6, 6–8, 8–12, and 12–24 h in plastic bottles containing 70 mg of ascorbic acid per 100 mL of urine. The volume of urine sample was measured and then centrifuged at 233× g to remove the precipitate. […]
# Flavonoid analysis was measured by a modified method of Biessaga [15] and Mullen et al. [16]. […]
# [2] = plasma; cited from earlier work
# [3] = Bioavailability estimated from total urinary excretion and flavonoid content in fruits; assay type: in vivo; details: human, 200 g, 200 g edible part, fruit content from ref 10, read-out: Estimated bioavailability (total urinary amount as % of content in fruit)
# Method: Hollman et al. reported the bioavailability of quercetin from apples and pure quercetin-3-rutinose was only 30% compared to onions. Here, we assumed the flavonoids recovering in urine had passed the blood compartment. […] In the two-hundred grams of edible part, guava and pineapple contained about 6900 μg and 850 μg of quercetin, respectively. The total amount of urinary quercetin accounted for 13% and 80% of the quercetin content in the respective fruits. […] It should be noted that, the bioavailability of flavonoids may be underestimated because the biliary excretion of flavonoids was not taken into account. Moreover, the urinary methyl-conjugated favonoids were not quantified in this study.
# [4] = parameters: method as in PMID 25212140; details: after ingestion of rooibos tea; cited from earlier work
# [5] = parameters: method as in PMID 11361045; details: cited from earlier work
# [6] = cited from earlier work
# [7] = parameters: method as in PMID 14709621; details: in vitro study; cited from earlier work
# [8] = Serum concentration of flavonoid metabolites after ingestion of 200 g fresh fruit (LC-MS/MS after enzyme hydrolysis); assay type: in vivo, human; details: despite presence in the selected fruits
# From the text: Three groups of six healthy subjects (male and female) between 20 and 30 years of age, with a body mass index between 18 and 25, were recruited for this study. Each group of participant received one kind of fruit. They were not alcohol drinkers, smokers, drug users, nor pregnant. They had not taken any medications for at least one month prior to the experiment. All participants underwent health checks for their hematological and biochemical profiles. There was no clinical presentation of gastrointestinal diseases (peptic ulcer), kidney diseases, liver diseases or jaundice, heart diseases, asthma, or diabetes mellitus. Levels of blood glucose before and 4 h after fruit ingestion were monitored in all subjects. […]
# Participants maintained a low-flavonoid diet (e.g., diet without vegetables, fruits, or chocolate) for two days and fasted for 8 h before the study to avoid any contribution from other foods containing flavonoids. […] The volume of urine sample was measured and then centrifuged at 233× g to remove the precipitate. […]
# The conjugated metabolites of flavonoids, glucuronic acid, and sulfate conjugates were determined in the serum and urine after hydrolyzing with β-glucuronidase (EC 3.2.1.31, bovine liver type B-I, Sigma, St Louis, MO, USA) and aryl sulfatase (EC 3.1.6.1, Merk, Darmstadt, Germany), respectively, at 37 °C for 16 h. […]
# [9] = system: LPS-induced pulmonary injury; parameters: method as in PMID 37335159; details: in vitro and in vivo models; cited from earlier work
structure (smiles),measurement,setting,value
O=C(O)[C@H]1O[C@@H](Oc2cc(-c3oc4cc(O)cc(O)c4c(=O)c3O)ccc2O)[C@H](O)[C@@H](O)[C@@H]1O [3′-quercetin glucuronide],Inhibitory effect on xanthine oxidase,xanthine oxidase,potent inhibitory effect
O=C(O)[C@H]1O[C@@H](Oc2ccc(-c3oc4cc(O)cc(O)c4c(=O)c3O)cc2O)[C@H](O)[C@@H](O)[C@@H]1O [4′-quercetin glucuronide],Inhibitory effect on xanthine oxidase,xanthine oxidase,potent inhibitory effect
"O=c1c(O)c(-c2ccc(O)cc2)oc2cc(O)cc(O)c12 [Kaempferol, kaempferol]",Conjugated forms recovered in urine,[1],found in both conjugated metabolites
same,Share that is glucuronide in the 3′-position,[2],20–40%
same,bioavailability,"[3]; urine, oral, from pineapple",10%
same,bioavailability,"[3]; urine, oral, from pomelo",1%
"O=c1cc(-c2ccc(O)c(O)c2)oc2cc(O)cc(O)c12 [Luteolin, luteolin]",Tmax,[4],1.5 to 3 h
same,bioavailability,"[3]; urine, oral, from guava",5%
same,bioavailability,"[3]; urine, oral, from pomelo",5%
"O=c1c(O)c(-c2cc(O)c(O)c(O)c2)oc2cc(O)cc(O)c12 [Myricetin, myricetin]",Conjugated forms recovered in urine,[1],only detected in sulfate form
same,Share that is glucuronide in the 3′-position,[2],20–40%
same,bioavailability,"[3]; in vivo, from guava",5%
same,bioavailability,"[3]; in vivo, from pineapple",10%
"O=c1c(O)c(-c2ccc(O)c(O)c2)oc2cc(O)cc(O)c12 [Quercetin, quercetin]",Tmax of quercetin,[5]; after ingesting buckwheat tea,4.3 h
same,Tmax of quercetin,[5]; after ingesting quercetin-3-rutioside,6.9 h
same,Tmax of quercetin,[5]; after single ingestion of onion,0.7 h
same,Tmax of quercetin,[5]; after single ingestion of quercetin-4’-glucoside,0.7 h
same,Bioavailability of quercetin compared to onions,[6]; from apples,30%
same,Conjugated forms recovered in urine,[1],found in both conjugated metabolites
same,Share that is glucuronide in the 3′-position,[2],20–40%
same,bioavailability,"[3]; urine, oral, from guava",13%
same,bioavailability,"[3]; urine, oral, from pineapple",80%
O=c1cc(-c2ccc(O)cc2)oc2cc(O)cc(O)c12 [apigenin],"Phase I metabolism, major metabolite",[7],forms luteolin as a major metabolite
same,Detection in serum or urine after fruit ingestion,[8],did not detect
COc1ccc([C@@H]2CC(=O)c3c(O)cc(O)cc3O2)cc1O [hesperetin],Detection in serum or urine after fruit ingestion,[8],did not detect
O=C(O)[C@H]1O[C@@H](Oc2c(-c3ccc(O)c(O)c3)oc3cc(O)cc(O)c3c2=O)[C@H](O)[C@@H](O)[C@@H]1O [quercetin-3-glucuronide],Activity in LPS-induced pulmonary injury,[9],exerted antioxidant and anti-inflammatory activity
same,Inhibitory effect on xanthine oxidase,xanthine oxidase,not active
"C[C@@H]1O[C@@H](OC[C@H]2O[C@@H](Oc3c(-c4ccc(O)c(O)c4)oc4cc(O)cc(O)c4c3=O)[C@H](O)[C@@H](O)[C@@H]2O)[C@H](O)[C@H](O)[C@H]1O [quercetin-3-rutinose, reference compound]",Bioavailability of quercetin compared to onions,[6]; in vivo,30%
